Results on 13 compounds are retold here after the NIST ThermoML archive (doi:10.1021/je049793l).

By mass density is commonly meant the mass of a sample divided by its volume. The speed of sound is how fast a sound wave travels through the sample. Broadly, the viscosity is the internal friction of a fluid under shear.

The conditions of data set [1]: 298.15 K; 101.3 kPa; Liquid.
Data set [2] in a line: xn = mol fraction of the nth substance listed. Particulars: 298.15 K, 101.3 kPa, Liquid.

± gives the expanded uncertainty stated by the source.

For the compound `Cc1ccccc1C` [1,2-dimethylbenzene], in data set [1], the mass density is 875.2 ± 1 kg/m3, the speed of sound turned out to be 1349 ± 3 m/s and the viscosity is recorded as 0.768 ± 0.013 mPa·s.

Consider `Cc1ccccc1C` [1,2-dimethylbenzene] + CCC(C)=O, for which, in data set [2] (x1 = 1), the mass density was determined as 875.2 ± 1 kg/m3, the speed of sound is 1349 ± 3 m/s and the viscosity was found to be 0.768 ± 0.013 mPa·s.

With `Cc1cccc(C)c1` [1,3-dimethylbenzene], in data set [1], the mass density worked out at 859.4 ± 1 kg/m3, the speed of sound amounted to 1323 ± 4 m/s and the viscosity was determined as 0.587 ± 0.011 mPa·s.

As to `Cc1cccc(C)c1` [1,3-dimethylbenzene] + CCC(C)=O, the mass density in data set [2] (x1 = 0.0428) was found to be 803.5 ± 0.9 kg/m3; in data set [2] (x1 = 0.1084) it was 809.2 ± 0.9 kg/m3; in data set [2] (x1 = 0.2261), 818.3 ± 0.9 kg/m3; in data set [2] (x1 = 0.3524), 827 ± 0.9 kg/m3; in data set [2] (x1 = 0.4941) it was 835.7 ± 0.9 kg/m3; in data set [2] (x1 = 0.646), 844.1 ± 0.9 kg/m3. Besides, the values for the mass density in data set [2] (x1 = 0.8137), in data set [2] (x1 = 0.9235) and in data set [2] (x1 = 1) were 852 ± 1 kg/m3, 856.7 ± 1 kg/m3 and 859.4 ± 1 kg/m3, respectively. In addition, the speed of sound in data set [2] (x1 = 0.0428) stood at 1204 ± 4 m/s; in data set [2] (x1 = 0.1084), 1218 ± 4 m/s; in data set [2] (x1 = 0.2261), 1240 ± 4 m/s; in data set [2] (x1 = 0.3524) it was 1256 ± 4 m/s; in data set [2] (x1 = 0.4941), 1273 ± 4 m/s; in data set [2] (x1 = 0.646), 1293 ± 4 m/s. Also, the speed of sound came out at 1312 ± 4 m/s in data set [2] (x1 = 0.8137), 1320 ± 4 m/s in data set [2] (x1 = 0.9235) and 1323 ± 4 m/s in data set [2] (x1 = 1). Besides, the viscosity amounted to 0.384 ± 0.009 mPa·s in data set [2] (x1 = 0.0428); 0.398 ± 0.009 mPa·s in data set [2] (x1 = 0.1084); 0.422 ± 0.009 mPa·s in data set [2] (x1 = 0.2261); 0.448 ± 0.01 mPa·s in data set [2] (x1 = 0.3524); 0.478 ± 0.01 mPa·s in data set [2] (x1 = 0.4941); 0.51 ± 0.01 mPa·s in data set [2] (x1 = 0.646). The viscosity in data set [2] (x1 = 0.8137) is given as 0.546 ± 0.011 mPa·s; in data set [2] (x1 = 0.9235) it was 0.57 ± 0.011 mPa·s; in data set [2] (x1 = 1), 0.587 ± 0.011 mPa·s.

As for `Cc1ccc(C)cc1` [1,4-dimethylbenzene], in data set [1], the mass density stood at 856.1 ± 1 kg/m3, the speed of sound is 1316 ± 3 m/s and the viscosity is 0.609 ± 0.011 mPa·s.

As to `Cc1ccc(C)cc1` [1,4-dimethylbenzene] + CCC(C)=O, in data set [2] (x1 = 1), the mass density was found to be 856.1 ± 1 kg/m3, the speed of sound is listed as 1316 ± 3 m/s and the viscosity is 0.609 ± 0.011 mPa·s.

For the compound `CCC(C)=O` [butanone], in data set [1], the mass density worked out at 799.6 ± 0.9 kg/m3, the speed of sound is listed as 1195 ± 3 m/s and the viscosity turned out to be 0.376 ± 0.009 mPa·s.

In the case of `CCC(C)=O` [butanone] + CC(C)c1ccccc1, in data set [2] (x2 = 0), the mass density stood at 799.6 ± 0.9 kg/m3, the speed of sound is given as 1195 ± 3 m/s and the viscosity was 0.376 ± 0.009 mPa·s.

As for `CCC(C)=O` [butanone] + Cc1ccc(C)cc1, the mass density is given as 799.6 ± 0.9 kg/m3 in data set [2] (x2 = 0); 806 ± 0.9 kg/m3 in data set [2] (x2 = 0.0429); 813.8 ± 0.9 kg/m3 in data set [2] (x2 = 0.1074); 823.5 ± 0.9 kg/m3 in data set [2] (x2 = 0.2235); 830.4 ± 0.9 kg/m3 in data set [2] (x2 = 0.3501); 836.6 ± 0.9 kg/m3 in data set [2] (x2 = 0.4895). The mass density stood at 842.9 ± 0.9 kg/m3 in data set [2] (x2 = 0.6419), 849.6 ± 1 kg/m3 in data set [2] (x2 = 0.8117) and 853.2 ± 1 kg/m3 in data set [2] (x2 = 0.9213). Besides, the speed of sound amounted to 1195 ± 3 m/s in data set [2] (x2 = 0); 1218 ± 3 m/s in data set [2] (x2 = 0.0429); 1237 ± 3 m/s in data set [2] (x2 = 0.1074); 1257 ± 3 m/s in data set [2] (x2 = 0.2235); 1272 ± 3 m/s in data set [2] (x2 = 0.3501); 1289 ± 3 m/s in data set [2] (x2 = 0.4895). For the same compound, the speed of sound in data set [2] (x2 = 0.6419) amounted to 1299 ± 3 m/s; in data set [2] (x2 = 0.8117) it was 1308 ± 3 m/s; in data set [2] (x2 = 0.9213), 1313 ± 3 m/s. For the same compound, the viscosity is 0.376 ± 0.009 mPa·s in data set [2] (x2 = 0); 0.392 ± 0.009 mPa·s in data set [2] (x2 = 0.0429); 0.414 ± 0.009 mPa·s in data set [2] (x2 = 0.1074); 0.444 ± 0.009 mPa·s in data set [2] (x2 = 0.2235); 0.471 ± 0.01 mPa·s in data set [2] (x2 = 0.3501); 0.5 ± 0.01 mPa·s in data set [2] (x2 = 0.4895). The viscosity is on record as 0.533 ± 0.01 mPa·s in data set [2] (x2 = 0.6419), 0.572 ± 0.011 mPa·s in data set [2] (x2 = 0.8117) and 0.596 ± 0.011 mPa·s in data set [2] (x2 = 0.9213).

For `CCC(C)=O` [butanone] + Cc1cccc(C)c1, in data set [2] (x2 = 0), the mass density was 799.6 ± 0.9 kg/m3, the speed of sound is listed as 1195 ± 4 m/s and the viscosity is 0.376 ± 0.009 mPa·s.

As to `CCC(C)=O` [butanone] + Cc1ccccc1C, the mass density in data set [2] (x2 = 0) was 799.6 ± 0.9 kg/m3; in data set [2] (x2 = 0.0437) it was 805.6 ± 0.9 kg/m3; in data set [2] (x2 = 0.1095), 813.7 ± 0.9 kg/m3; in data set [2] (x2 = 0.2288), 825.7 ± 0.9 kg/m3; in data set [2] (x2 = 0.3564), 836.2 ± 0.9 kg/m3; in data set [2] (x2 = 0.4969), 846.1 ± 0.9 kg/m3. Besides, the mass density in data set [2] (x2 = 0.65) came out at 856 ± 1 kg/m3; in data set [2] (x2 = 0.8165) it was 865.9 ± 1 kg/m3; in data set [2] (x2 = 0.9244), 871.7 ± 1 kg/m3. Further, the speed of sound amounted to 1195 ± 3 m/s in data set [2] (x2 = 0); 1208 ± 3 m/s in data set [2] (x2 = 0.0437); 1222 ± 3 m/s in data set [2] (x2 = 0.1095); 1244 ± 3 m/s in data set [2] (x2 = 0.2288); 1266 ± 3 m/s in data set [2] (x2 = 0.3564); 1288 ± 3 m/s in data set [2] (x2 = 0.4969). For the same compound, the speed of sound came to 1310 ± 3 m/s in data set [2] (x2 = 0.65), 1331 ± 3 m/s in data set [2] (x2 = 0.8165) and 1339 ± 3 m/s in data set [2] (x2 = 0.9244). For the same compound, the viscosity in data set [2] (x2 = 0) is listed as 0.376 ± 0.009 mPa·s; in data set [2] (x2 = 0.0437) it was 0.39 ± 0.009 mPa·s; in data set [2] (x2 = 0.1095) it was 0.412 ± 0.009 mPa·s; in data set [2] (x2 = 0.2288), 0.451 ± 0.01 mPa·s; in data set [2] (x2 = 0.3564), 0.493 ± 0.01 mPa·s; in data set [2] (x2 = 0.4969), 0.542 ± 0.011 mPa·s. The viscosity in data set [2] (x2 = 0.65) was 0.601 ± 0.011 mPa·s; in data set [2] (x2 = 0.8165), 0.673 ± 0.012 mPa·s; in data set [2] (x2 = 0.9244) it was 0.727 ± 0.013 mPa·s.

Turning to `CC(C)c1ccccc1` [isopropylbenzene], in data set [1], the mass density amounted to 857.1 ± 1 kg/m3, the speed of sound came out at 1338 ± 3 m/s and the viscosity is on record as 0.739 ± 0.013 mPa·s.

For `CC(C)c1ccccc1` [isopropylbenzene] + CCC(C)=O, the mass density in data set [2] (x1 = 0.0377) stood at 805 ± 0.9 kg/m3; in data set [2] (x1 = 0.0964) it was 812.2 ± 0.9 kg/m3; in data set [2] (x1 = 0.2025) it was 821.7 ± 0.9 kg/m3; in data set [2] (x1 = 0.3251), 829.5 ± 0.9 kg/m3; in data set [2] (x1 = 0.4599) it was 835.4 ± 0.9 kg/m3; in data set [2] (x1 = 0.615), 842 ± 0.9 kg/m3. Besides, the values for the mass density in data set [2] (x1 = 0.7937), in data set [2] (x1 = 0.9123) and in data set [2] (x1 = 1) were 849.2 ± 1 kg/m3, 853.9 ± 1 kg/m3 and 857.1 ± 1 kg/m3, respectively. The speed of sound was 1204 ± 3 m/s in data set [2] (x1 = 0.0377); 1217 ± 3 m/s in data set [2] (x1 = 0.0964); 1240 ± 3 m/s in data set [2] (x1 = 0.2025); 1262 ± 3 m/s in data set [2] (x1 = 0.3251); 1279 ± 3 m/s in data set [2] (x1 = 0.4599); 1290 ± 3 m/s in data set [2] (x1 = 0.615). Moreover, the speed of sound in data set [2] (x1 = 0.7937) amounted to 1298 ± 3 m/s; in data set [2] (x1 = 0.9123) it was 1308 ± 3 m/s; in data set [2] (x1 = 1), 1338 ± 3 m/s. For the same compound, the viscosity in data set [2] (x1 = 0.0377) came to 0.388 ± 0.009 mPa·s; in data set [2] (x1 = 0.0964), 0.408 ± 0.009 mPa·s; in data set [2] (x1 = 0.2025), 0.445 ± 0.009 mPa·s; in data set [2] (x1 = 0.3251), 0.486 ± 0.01 mPa·s; in data set [2] (x1 = 0.4599), 0.535 ± 0.01 mPa·s; in data set [2] (x1 = 0.615), 0.592 ± 0.011 mPa·s. The viscosity in data set [2] (x1 = 0.7937) is recorded as 0.66 ± 0.012 mPa·s; in data set [2] (x1 = 0.9123) it was 0.705 ± 0.012 mPa·s; in data set [2] (x1 = 1) it was 0.739 ± 0.013 mPa·s.
